Measurements: patent US20250090510A1, “eIF4G1-eIF1 INHIBITORS AND USE THEREOF” (YEDA RESEARCH AND DEVELOPMENT CO. LTD., priority 2022, published 2025)

How the values were obtained:
[1] = tested on: Plasmodium falciparum NF54 strain; assay: Parasitemia assay in blood cultures; assay type: cell-based; details: i14G1-10 20 uM, i14G1-12 10 uM; 1 hour, wash, measured 24 hours later
Description: FIGS. 8A-B: (8A) Bar graph of percent parasitemia in blood samples treated with i14G1-10 (20 μM) and i14G1-12 (10 μM) for 1 hour. DMSO treatment was used as a negative control. *=pVal; <0.05, ***=pVal<0.001 (8B) Photograph of a western blot and corresponding gel total protein staining of P. falciparum blood cultures treated with the inhibitors with or without the addition of puromycin. DMSO treatment and untreated cultures were used as a negative control.
From the same flask with -3-4% parasitemia, parasites were plated at 5 ml/well into six well-plates. To the trophozoite stage of development, i14G1-10, i14G1-12, or DMSO, were added and incubated at 37° C. with shaking. After one hour of incubation, from each sample, 1 ml of culture was taken. […]
The next day, the parasitemia (the number of iRBCs divided by the number of total RBCs) was measured by microscopy. The gold-standard method for identifying and quantifying malaria parasites as disclosed in Murphy et al., 2013, “Malaria diagnostics in clinical trials.” Am J Trop Med Hyg., 89(5):824-39, herein incorporated by reference in its entirety, was used. […] Infected RBCs were quantified by eye. No less than 30 fields of view were counted to find the final parasitemia percent.
Parasitaemia levels were measured 24 hours later.

HEK293T cells = assay: Puromycin labeling (puromycin-incorporation assay); assay type: cell-based; details: Homo sapiens, HEK-293T; 3 h treatment, puromycin 10 μg/ml 5 minutes; read-out: IC-50, nascent polypeptide puromycin labeling
Description: FIGS. 3A-F: i14G1-10 and i14G1-12 inhibit mRNA translation and sensitize cell survival of eIF4G1 and eIF1 depleted cells. (3A) In-vitro translation using rabbit reticulocyte lysate which was pre-incubated with different concentrations of i14G1-10 or i14G1-12 for 10 minutes followed by the addition of capped firefly luciferase mRNA. After 90 minutes at 30° C., the luminescence signal was measured and the IC50 was calculated. The data represents mean±SEM of 6 independent repeats. (3B) HEK293T cells were treated with DMSO (vehicle control), and sub-cytotoxic concentrations of i14G1-10 (20 μM) and i14G1-12 (10 μM) for 3h. Cell lysates were then subjected to sucrose gradient sedimentation to obtain polysome profiles. (3C) HEK293T cells were treated with the indicated concentrations of i14G1-10 and i14G-12 for 3 h, followed by the addition of puromycin (10 μg/ml) for 5 minutes, after which cells were lysed and analyzed by western blot using an anti-puromycin antibody and anti-GAPDH antibody that serves as a loading control. […] The calculated IC-50 is shown. […] The calculated IC-50 is shown. (3E) The graphs represent cell viability of the indicated cell lines in the presence of increasing concentrations of i14G1-10 and i14G1, analyzed by Luminescent Cell Viability Assay. […]

SMILES	reduction of parasite levels (parasitaemia) [1] [%]	IC50 (HEK293T cells) [µM]
O=C(/C=C/Sc1ccc(C(F)(F)F)cn1)c1ccccc1 [i14G1-10]	42	20.4
Cn1ccnc1S/C(=C/C=C(C#N)C#N)c1ccc(Cl)cc1 [i14G1-12]	69	4.96
